Assay results reported in patent publication US20190151312A1, “HEPARAN SULFATE BIOSYNTHESIS INHIBITORS FOR THE TREATMENT OF DISEASES” (BioMarin Pharmaceutical Inc., priority 2014, published 2019).
Read-outs that look alike come from different tables or passages of the source.

Test system: GM01896 cells (MPS II dermal fibroblasts)
Test: Assay 1: MPS cellular assay, MPS II (heparan sulfate disaccharide biomarkers by LC-MS)
Assay type: cell-based, human
Conditions: Assay 1 for MPS II, heparan sulfate disaccharide biomarkers (I2a4, I2a6, I2S0 and/or I2S6), read-out: IC50 Range
Summary of the method: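 MPS II patient dermal fibroblasts (GM01896) treated with compound at ≤30 μM for 4 to 21 days. Heparan sulfate GAGs isolated by anion exchange, digested with heparinases I-III, aniline-tagged against [13C6]aniline standards and quantified by LC-MS; IC50 from curve fitting. Viability monitored by alamar blue or ATP.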

Compound | IC50 (Homo sapiens, Fibroblast) | IC50
CNC(=O)c1ccc(Nc2cc(-c3ccc4ncn(CCCN(C)C)c4c3)nc(N3CCOCC3)n2)cc1 [{4-[(6-{1-[3-(dimethylamino)propyl]benzimidazol-6-yl}-2-morpholin-4-ylpyrimidin-4-yl)amino]phenyl}-N-methylcarboxamide] | 1 to 5 µM | –
Cn1ncc2ccc(-c3cc(Nc4ccc(NS(C)(=O)=O)cc4)nc(N4CCOCC4)n3)cc21 [(4-{[6-(1-methyl(1H-indazol-6-yl))-2-morpholin-4-ylpyrimidin-4-yl]amino}phenyl)(methylsulfonyl)amine] | 0.5 to 1 µM | –
Cn1ncc2ccc(-c3cc(Nc4ccc(-c5ncon5)cc4)nc(N4CCOCC4)n3)cc21 [[6-(1-methyl(1H-indazol-6-yl))-2-morpholin-4-ylpyrimidin-4-yl](4-(1,2,4-oxadiazol-3-yl)phenyl)amine] | 0.5 to 1 µM | –
CNC(=O)c1ccc(Nc2cc(-c3ccc4ncn(CCCN5CCOCC5)c4c3)nc(N3CCOCC3)n2)cc1 [N-methyl[4-({2-morpholin-4-yl-6-[1-(3-morpholin-4-ylpropyl)benzimidazol-6-yl]pyrimidin-4-yl}amino)phenyl]carboxamide] | 1 to 5 µM | –
Clc1ccc(Nc2cc(-c3ccc4ncn(C5CCC5)c4c3)nc(N3CCOCC3)n2)cc1 [(4-chlorophenyl)[6-(1-cyclobutylbenzimidazol-6-yl)-2-morpholin-4-ylpyrimidin-4-yl]amine] | 0.5 to 1 µM | –
Clc1ccc(Nc2cc(-c3ccc4nn(CC5CC5)cc4c3)nc(N3CCOCC3)n2)cc1 [(4-chlorophenyl){6-[2-(cyclopropylmethyl)(2H-indazol-5-yl)]-2-morpholin-4-ylpyrimidin-4-yl}amine] | 1 to 5 µM | –
Cn1c(=O)n(CCN2CCOCC2)c2ccc(-c3cc(Nc4ccc(Cl)cc4)nc(N4CCOCC4)n3)cc21 [5-{6-[(4-chlorophenyl)amino]-2-morpholin-4-ylpyrimidin-4-yl}-3-methyl-1-(2-morpholin-4-ylethyl)-3-hydrobenzimidazol-2-one] | – | 0.5 to 1 µM
COCCn1cnc2ccc(-c3cc(Nc4ccc(C(=O)O)cc4)nc(N4CCOCC4)n3)cc21 [4-({6-[1-(2-methoxyethyl)benzimidazol-6-yl]-2-morpholin-4-ylpyrimidin-4-yl}amino)benzoic acid] | 1 to 5 µM | –
Cn1ncc2ccc(-c3cc(Nc4ccc5cn[nH]c5c4)nc(N4CCOCC4)n3)cc21 [1H-indazol-6-yl[6-(1-methyl(1H-indazol-6-yl))-2-morpholin-4-ylpyrimidin-4-yl]amine] | 1 to 5 µM | –
Clc1ccc(Nc2cc(-c3ccc4[nH]ncc4c3)nc(N3CCOCC3)n2)cc1 [N-(4-chlorophenyl)-6-(1H-indazol-5-yl)-2-morpholinopyrimidin-4-amine] | 1 to 5 µM | –
Cc1nn(C)c2cc(-c3cc(Nc4ccc(-n5cccn5)cc4)nc(N4CCOCC4)n3)ccc12 [[6-(1,3-dimethyl(1H-indazol-6-yl))-2-morpholin-4-ylpyrimidin-4-yl](4-pyrazolylphenyl)amine] | – | < 0.5 µM
Cc1nc2ccc(-c3cc(Nc4ccc(Cl)cc4)nc(N4CCOCC4)n3)cc2n1CCCN(C)C [[3-(6-{6-[(4-chlorophenyl)amino]-2-morpholin-4-ylpyrimidin-4-yl}-2-methylbenzimidazolyl)propyl]dimethylamine] | – | 0.5 to 1 µM
CNC(=O)c1ccc(Nc2cc(-c3ccc4cnn(C5CCC5)c4c3)nc(N3CCOCC3)n2)cc1 [(4-{[6-(1-cyclobutyl(1H-indazol-6-yl))-2-morpholin-4-ylpyrimidin-4-yl]amino}phenyl)-N-methylcarboxamide] | < 0.5 µM | –
Cn1nc(CCN2CCNCC2)c2ccc(-c3cc(Nc4ccc(Cl)cc4)nc(N4CCOCC4)n3)cc21 [(4-chlorophenyl){6-[1-methyl-3-(2-piperazinylethyl)(1H-indazol-6-yl)]-2-morpholin-4-ylpyrimidin-4-yl}amine] | 1 to 5 µM | –
Cn1ncc2ccc(-c3cc(Nc4ccc(-c5c[nH]cn5)cc4)nc(N4CCOCC4)n3)cc21 [(4-imidazol-4-ylphenyl)[6-(1-methyl(1H-indazol-6-yl))-2-morpholin-4-ylpyrimidin-4-yl]amine] | 0.5 to 1 µM | –
Cc1nn(CCN2CCCC2)c2cc(-c3cc(Nc4ccc(Cl)cc4)nc(N4CCOCC4)n3)ccc12 [(4-chlorophenyl){6-[3-methyl-1-(2-pyrrolidinylethyl)(1H-indazol-6-yl)]-2-morpholin-4-ylpyrimidin-4-yl}amine] | 1 to 5 µM | –
Cn1ncc2ccc(-c3cc(Nc4ccc(-c5cocn5)cc4)nc(N4CCOCC4)n3)cc21 [[6-(1-methyl(1H-indazol-6-yl))-2-morpholin-4-ylpyrimidin-4-yl](4-(1,3-oxazol-4-yl)phenyl)amine] | < 0.5 µM | –
Cn1nc(CCN2CCOCC2)c2ccc(-c3cc(Nc4ccc(-c5ncc[nH]5)cc4)nc(N4CCOCC4)n3)cc21 [(4-imidazol-2-ylphenyl){6-[1-methyl-3-(2-morpholin-4-ylethyl)(1H-indazol-6-yl)]-2-morpholin-4-ylpyrimidin-4-yl}amine] | 1 to 5 µM | –
Cn1ncc2ccc(-c3cc(Nc4ccc5[nH]ncc5c4)nc(N4CCOCC4)n3)cc21 [1H-indazol-5-yl[6-(1-methyl(1H-indazol-6-yl))-2-morpholin-4-ylpyrimidin-4-yl]amine] | 1 to 5 µM | –

Compound | IC50 (Homo sapiens, Fibroblast) | IC50
Cn1ccc2ccc(Nc3cc(-c4ccc5c(CCN)nn(C)c5c4)nc(N4CCOCC4)n3)cc21 [{6-[3-(2-aminoethyl)-1-methyl(1H-indazol-6-yl)]-2-morpholin-4-ylpyrimidin-4-yl}(1-methylindol-6-yl)amine] | < 0.5 µM | –
CNC(=O)c1ccc(Nc2cc(-c3ccc4c(cnn4C4CC4)c3)nc(N3CCOCC3)n2)cc1 [(4-{[6-(1-cyclopropyl(1H-indazol-5-yl))-2-morpholin-4-ylpyrimidin-4-yl]amino}phenyl)-N-methylcarboxamide] | 1 to 5 µM | –
Cn1c(CN2CCOCC2)nc2ccc(-c3cc(Nc4ccc(Cl)cc4)nc(N4CCOCC4)n3)cc21 [(4-chlorophenyl){6-[1-methyl-2-(morpholin-4-ylmethyl)benzimidazol-6-yl]-2-morpholin-4-ylpyrimidin-4-yl}amine] | 0.5 to 1 µM | –
Cn1nc(Cl)c2ccc(-c3cc(Nc4ccc(Cl)cc4)nc(N4CCOCC4)n3)cc21 [[6-(3-chloro-1-methyl(1H-indazol-6-yl))-2-morpholin-4-ylpyrimidin-4-yl](4-chlorophenyl)amine] | 1 to 5 µM | –
Cn1cnc2ccc(-c3cc(Nc4ccccc4)nc(N4CCOCC4)n3)cc21 [[6-(1-methylbenzimidazol-6-yl)-2-morpholin-4-ylpyrimidin-4-yl]phenylamine] | 1 to 5 µM | –
CNC(=O)c1ccc(Nc2cc(-c3ccc4ncn(C5CCC5)c4c3)nc(N3CCOCC3)n2)cc1 [(4-{[6-(1-cyclobutylbenzimidazol-6-yl)-2-morpholin-4-ylpyrimidin-4-yl]amino}phenyl)-N-methylcarboxamide] | < 0.5 µM | –
Cn1ncc2ccc(-c3cc(Nc4ccc(C(=O)NC5(C)CC5)cc4)nc(N4CCOCC4)n3)cc21 [(4-{[6-(1-methyl(1H-indazol-6-yl))-2-morpholin-4-ylpyrimidin-4-yl]amino}phenyl)-N-(methylcyclopropyl)carboxamide] | 1 to 5 µM | –
CN(C)CCn1ncc2ccc(-c3cc(Nc4ccc(Cl)cc4)nc(N4CCOCC4)n3)cc21 [[2-(6-{6-[(4-chlorophenyl)amino]-2-morpholin-4-ylpyrimidin-4-yl}(1H-indazolyl))ethyl]dimethylamine] | 0.5 to 1 µM | –
Cn1cnc2ccc(-c3cc(Nc4ccc(NS(C)(=O)=O)cc4)nc(N4CCOCC4)n3)cc21 [(4-{[6-(1-methylbenzimidazol-6-yl)-2-morpholin-4-ylpyrimidin-4-yl]amino}phenyl)(methylsulfonyl)amine] | 1 to 5 µM | –
Cn1ncc2cc(Nc3cc(-c4ccc5cnn(C)c5c4)nc(N4CCOCC4)n3)ccc21 [(1-methyl(1H-indazol-5-yl))[6-(1-methyl(1H-indazol-6-yl))-2-morpholin-4-ylpyrimidin-4-yl]amine] | 1 to 5 µM | –
Cn1cnc2ccc(-c3cc(Nc4ccc(C(N)=O)cc4)nc(N4CCOCC4)n3)cc21 [4-{[6-(1-methylbenzimidazol-6-yl)-2-morpholin-4-ylpyrimidin-4-yl]amino}benzamide] | 0.5 to 1 µM | –
Cc1nn(C)c2nc(-c3cc(Nc4ccc(Cl)cc4)nc(N4CCOCC4)n3)ccc12 [[6-(1,3-dimethylpyrazolo[4,5-e]pyridin-6-yl)-2-morpholin-4-ylpyrimidin-4-yl](4-chlorophenyl)amine] | 1 to 5 µM | –
[6-(1-methyl(1H-indazol-6-yl))-2-morpholin-4-ylpyrimidin-4-yl][4-(3-methylpyrazolyl)phenyl]amine | – | < 0.5 µM
Cn1nc(CCCN2CCCC2)c2ccc(-c3cc(Nc4ccc(Cl)cc4)nc(N4CCOCC4)n3)cc21 [(4-chlorophenyl){6-[1-methyl-3-(3-pyrrolidinylpropyl)(1H-indazol-6-yl)]-2-morpholin-4-ylpyrimidin-4-yl}amine] | 0.5 to 1 µM | –
Cn1nc(NCCCN2CCCC2)c2ccc(-c3cc(Nc4ccc(Cl)cc4)nc(N4CCOCC4)n3)cc21 [(4-chlorophenyl)(6-{1-methyl-3-[(3-pyrrolidinylpropyl)amino](1H-indazol-6-yl)}-2-morpholin-4-ylpyrimidin-4-yl)amine] | 1 to 5 µM | –
CN(C)CCn1cc2ccc(-c3cc(Nc4ccc(Cl)cc4)nc(N4CCOCC4)n3)cc2n1 [[2-(6-{6-[(4-chlorophenyl)amino]-2-morpholin-4-ylpyrimidin-4-yl}(2H-indazol-2-yl))ethyl]dimethylamine] | 0.5 to 1 µM | –
CNC(=O)c1ccc(Nc2cc(-c3ccc4nc(C)n(C5CCC5)c4c3)nc(N3CCOCC3)n2)cc1 [(4-{[6-(1-cyclobutyl-2-methylbenzimidazol-6-yl)-2-morpholin-4-ylpyrimidin-4-yl]amino}phenyl)-N-methylcarboxamide] | < 0.5 µM | –
CN1CCN(CCn2ncc3ccc(-c4cc(Nc5ccc(Cl)cc5)nc(N5CCOCC5)n4)cc32)CC1 [(4-chlorophenyl)(6-{1-[2-(4-methylpiperazinyl)ethyl](1H-indazol-6-yl)}-2-morpholin-4-ylpyrimidin-4-yl)amine] | 0.5 to 1 µM | –
